One series deals with recombinant human ACC1 (Homo sapiens (Human), UniProt Q13085). Nature of the series: Inhibition of enzymatic activity of ACC1 (ADP-Glo chemiluminescence). The series is classed as biochemical. To be noted: recombinant human ACC1 protein 2 nM, ATP 20 μM, acetyl-CoA 10 μM, NaHCO3 30 mM. How it is done:
(§1) The degree of inhibition of the enzymatic activity of recombinant human ACC1, ACC2 proteins under in-vitro conditions by the preferred compounds of the present disclosure is determined by the following method.
The principle of the method was based on the reaction of ACC protein-catalyzed acetyl-CoA to form malonyl-CoA. ATP was consumed during this reaction and ADP was produced. The produced ADP was reconverted into ATP by using ADP-Glo™ Kinase Kit from Promega. This part of ATP reacted with the luciferase-fluorescence in the kit, and generated chemiluminescent signals. Thus, by measuring the intensity of chemiluminescent signal, the amount of ADP produced in the catalytic reaction was reflected, thereby indirectly determining the enzymatic activity of ACC protein and the effect of the tested compound on the enzymatic activity. The main reagents used included ACC1, ACC2 proteins (purchased from BPS bioscience, ACC1 Art. No. 50200, ACC2 Art. No. 50201), acetyl-CoA (acetyl-CoA, purchased from Sigma, Art. No. A2056), NaHCO3 (purchased from Sigma, Art. No. S6014), ADP-Glo™ Kinase assay kit (purchased from Promega, Art. No. V9102).
The test procedure was briefly described as follows: firstly, a 1× buffer solution required for the reaction was prepared, comprising: 50 mM HEPES (pH7.4 purchased from Invitrogen, Art. No. 15630), 2 mM magnesium chloride (MgCl2, purchased from Sigma, Art. No. M1028), 2 mM potassium citrate (Potassium citrate, purchased from Sigma, Art. No. 89306), 0.01% Brij-35 detergent (purchased from Merck, Art. No. 203728), 2 mM DTT (purchased from Sigma, Art. No. D0632). The test compound powder was dissolved in DMSO to prepare a stock solution having a concentration of 10 mM, followed by three-fold dilution to prepare the concentration required for the test, and each compound was set at 10 concentration points ranging from 10 μm to 0.5 nM. Firstly, appropriate amount of ACC protein (2 nM) was added to a 384-well microplate, and then diluted test compound solutions were added to each well. A duplicate well was provided at each concentration, and a solution control group (blank group) and a negative control group (DMSO group) were set at the same time. The 384-well plates were then shaken on a microwell plate oscillator and incubated for 15 minutes at room temperature. Thereafter, a substrate mixture containing ATP, acetyl-CoA and NaHCO3 which was diluted with the aforementioned buffer solution was added to each well to start the reaction, and the final concentrations of the three components were respectively ATP 20 μM, acetyl-CoA 10 μM, and NaHCO3 30 mM. After reacting for 30 minutes at room temperature, the corresponding reaction solution and detection solution were added to each well according to the method in the specification of ADP-Glo™ Kinase assay kit (referring to the specification of the kit for specific methods). Finally, the relative light unit (RLU) values of each well were tested using an Envision 2104 multi-function microplate reader (Perkin Elmer). The percentage inhibition rate of a compound at a concentration on ACC enzyme activity was calculated by the following formula: Inhibition rate %=[(RLU average value of negative control wells−RLU average value of blank control wells)−(RLU average values of test wells−RLU average values of blank control wells)]/(RLU average values of negative control wells−RLU average values of blank control wells)*100
Finally, nonlinear regression analysis of the logarithm of the concentration of the compound and the percentage inhibition rate of the corresponding concentration was carried out in the GraphPad Prism5 software to obtain the half maximal inhibitory concentration (IC50) of the compound.
Background: In ADP-Glo the light output rises with the ADP produced.

The nature of series [1]: Oral pharmacokinetic research in SD rats (plasma and liver, LC/MS/MS). The series is classed as in vivo. To be noted: male, Sprague-Dawley (SD), rat, intragastric, 10 mg/kg. As to the method:
SD rat was used as the experimental animal. The drug concentrations in plasma and liver at different times were tested after the rats were intragastrically administered with the compound of Example 19 by LC/MS/MS methods, so as to research the pharmacokinetic characteristics of compound of present disclosure in rats.
An appropriate amount of experimental drug was weighed, and 0.5% sodium carboxymethylcellulose (CMC-Na) was added, and the mixture was milled to prepare a 1 mg/mL suspension;
6 healthy adult male rats were divided into 2 groups, fasted overnight and respectively intragastrically administered with the drug at a dosage of 10 mg/kg, at a volume of 10 mL/kg. The rats were feed 2 h after the administration.
Blood was collected by jugular vein puncture, and about 0.25 mL was collected for each sample, which was anticoagulated by using heparin sodium, and the samples were placed on ice after collection. The time points of blood collection were as follows:
The first group of animals: blood collection time: before administration, and 0.083 h, 0.25 h, 0.5 h, 1 h, 2 h, 4 h, 6 h, 8 h and 24 h after administration.
The second group of animals: the animals were euthanized 0.5 h after administration, and the liver tissues were collected, 3 rats/time point.
Blood samples were collected and placed on ice, and plasma was separated by centrifugation (centrifugation conditions: 8000 rpm, 6 min, 2-8° C.). The collected plasma was stored at −80° C. before analysis.
The content of the test compound in the plasma and liver of the rats after intragastrically administration was analyzed by LC-MS/MS.

Another series addresses recombinant human ACC2 (Homo sapiens (Human), UniProt O00763). Nature of the series: Inhibition of enzymatic activity of ACC2 (ADP-Glo chemiluminescence). The series is classed as biochemical. To be noted: recombinant human ACC2 protein 2 nM, ATP 20 μM, acetyl-CoA 10 μM, NaHCO3 30 mM. As to the method: as §1
The principle of the method was based on the reaction of ACC protein-catalyzed acetyl-CoA to form malonyl-CoA. ATP was consumed during this reaction and ADP was produced. The produced ADP was reconverted into ATP by using ADP-Glo™ Kinase Kit from Promega. This part of ATP reacted with the luciferase-fluorescence in the kit, and generated chemiluminescent signals. […]
The test procedure was briefly described as follows: firstly, a 1× buffer solution required for the reaction was prepared, comprising: 50 mM HEPES (pH7.4 purchased from Invitrogen, Art. No. 15630), 2 mM magnesium chloride (MgCl2, purchased from Sigma, Art. No. M1028), 2 mM potassium citrate (Potassium citrate, purchased from Sigma, Art. No. 89306), 0.01% Brij-35 detergent (purchased from Merck, Art. No. 203728), 2 mM DTT (purchased from Sigma, Art. No. D0632). […] Finally, the relative light unit (RLU) values of each well were tested using an Envision 2104 multi-function microplate reader (Perkin Elmer). […]

Molecules are shown by their SMILES.

recombinant human ACC2, sequence (O00763 whole entry): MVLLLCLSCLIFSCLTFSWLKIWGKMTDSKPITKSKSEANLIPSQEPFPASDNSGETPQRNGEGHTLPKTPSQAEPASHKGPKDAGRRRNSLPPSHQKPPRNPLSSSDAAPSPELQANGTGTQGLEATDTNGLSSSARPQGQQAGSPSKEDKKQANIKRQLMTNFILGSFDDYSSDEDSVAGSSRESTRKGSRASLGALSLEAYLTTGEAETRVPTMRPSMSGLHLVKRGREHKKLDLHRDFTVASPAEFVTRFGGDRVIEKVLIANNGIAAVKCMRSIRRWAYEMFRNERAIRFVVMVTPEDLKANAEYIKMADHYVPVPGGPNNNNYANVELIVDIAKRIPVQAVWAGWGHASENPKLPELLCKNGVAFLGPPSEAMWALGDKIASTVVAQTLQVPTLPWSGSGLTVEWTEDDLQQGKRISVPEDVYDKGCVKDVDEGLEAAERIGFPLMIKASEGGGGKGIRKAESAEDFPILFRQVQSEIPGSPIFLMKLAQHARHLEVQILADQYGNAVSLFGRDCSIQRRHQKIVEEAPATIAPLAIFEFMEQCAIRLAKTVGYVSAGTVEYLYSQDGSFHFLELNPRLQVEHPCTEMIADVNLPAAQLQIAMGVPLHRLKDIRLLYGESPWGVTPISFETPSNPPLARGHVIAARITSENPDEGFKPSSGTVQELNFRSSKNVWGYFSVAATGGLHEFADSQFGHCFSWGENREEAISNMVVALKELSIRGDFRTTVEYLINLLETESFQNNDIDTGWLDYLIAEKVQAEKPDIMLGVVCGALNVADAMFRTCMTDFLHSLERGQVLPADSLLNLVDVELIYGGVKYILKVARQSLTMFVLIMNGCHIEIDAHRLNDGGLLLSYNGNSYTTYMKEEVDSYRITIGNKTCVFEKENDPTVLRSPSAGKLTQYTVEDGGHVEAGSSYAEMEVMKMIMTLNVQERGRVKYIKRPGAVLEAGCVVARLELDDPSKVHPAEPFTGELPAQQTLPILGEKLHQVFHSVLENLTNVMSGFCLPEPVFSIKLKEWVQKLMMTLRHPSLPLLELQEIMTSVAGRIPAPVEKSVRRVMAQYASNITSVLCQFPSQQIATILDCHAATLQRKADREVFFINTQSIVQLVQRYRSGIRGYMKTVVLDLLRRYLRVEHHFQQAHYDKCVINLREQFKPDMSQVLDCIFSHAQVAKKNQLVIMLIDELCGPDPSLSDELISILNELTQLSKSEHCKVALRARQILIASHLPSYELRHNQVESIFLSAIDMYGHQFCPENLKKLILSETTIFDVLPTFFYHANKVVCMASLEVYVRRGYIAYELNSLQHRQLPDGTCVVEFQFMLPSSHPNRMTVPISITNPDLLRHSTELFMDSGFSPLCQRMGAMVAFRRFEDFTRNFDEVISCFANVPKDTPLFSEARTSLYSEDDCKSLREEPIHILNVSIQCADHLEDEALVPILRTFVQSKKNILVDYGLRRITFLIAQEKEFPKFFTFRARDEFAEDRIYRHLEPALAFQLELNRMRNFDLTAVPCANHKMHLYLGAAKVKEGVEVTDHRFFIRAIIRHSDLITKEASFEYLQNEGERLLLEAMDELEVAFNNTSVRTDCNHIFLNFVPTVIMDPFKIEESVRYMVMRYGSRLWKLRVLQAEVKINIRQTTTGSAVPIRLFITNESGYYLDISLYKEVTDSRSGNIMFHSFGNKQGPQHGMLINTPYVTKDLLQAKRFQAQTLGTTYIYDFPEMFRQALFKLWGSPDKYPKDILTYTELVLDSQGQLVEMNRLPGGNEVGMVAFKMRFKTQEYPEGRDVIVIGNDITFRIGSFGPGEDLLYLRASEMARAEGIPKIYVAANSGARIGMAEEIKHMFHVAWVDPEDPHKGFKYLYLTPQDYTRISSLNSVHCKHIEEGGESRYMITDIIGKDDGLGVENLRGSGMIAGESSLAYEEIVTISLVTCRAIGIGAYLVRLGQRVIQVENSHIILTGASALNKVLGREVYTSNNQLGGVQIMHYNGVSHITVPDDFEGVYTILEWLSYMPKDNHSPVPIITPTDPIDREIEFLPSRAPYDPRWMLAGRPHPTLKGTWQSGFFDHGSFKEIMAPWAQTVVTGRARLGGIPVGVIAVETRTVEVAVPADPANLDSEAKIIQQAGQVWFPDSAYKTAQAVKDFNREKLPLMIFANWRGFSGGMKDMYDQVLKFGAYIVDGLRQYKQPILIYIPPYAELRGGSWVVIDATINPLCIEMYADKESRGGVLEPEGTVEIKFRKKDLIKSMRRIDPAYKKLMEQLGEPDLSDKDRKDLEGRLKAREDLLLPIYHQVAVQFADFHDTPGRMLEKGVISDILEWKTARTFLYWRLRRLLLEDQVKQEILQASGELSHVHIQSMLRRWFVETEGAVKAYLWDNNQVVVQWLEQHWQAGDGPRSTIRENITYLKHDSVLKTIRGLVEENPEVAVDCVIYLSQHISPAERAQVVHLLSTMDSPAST

By IC50 is commonly meant the concentration needed to halve the response being measured. As for `COc1ccccc1C(Cn1c(=O)n(C(C)(C)C(=O)O)c(=O)c2c(C)c(C#N)sc21)OC1CCOCC1` (stereo not shown) [Example 1, 2-(6-Cyano-1-(2-(2-methoxyphenyl)-2-((tetrahydro-2H-pyran-4-yl)oxy)ethyl)-5-methyl-2,4-dioxo-1,2-dihydrothiopheno[2,3-d]pyrimidin-3(4H)-yl)-2-methylpropionic acid], the IC50 at recombinant human ACC1 was found to be 38 nM.

As to `COc1ccccc1[C@@H](Cn1c(=O)n(C(C)(C)C(=O)O)c(=O)c2c(C)c(C#N)sc21)OC1CCOCC1` [Example 2, (S)-2-(6-Cyano-1-(2-(2-methoxyphenyl)-2-((tetrahydro-2H-pyran-4-yl)oxy)ethyl)-5-methyl-2,4-dioxo-1,2-dihydrothiopheno[2,3-d]pyrimidin-3(4H)-yl)-2-methylpropionic acid], the IC50 at recombinant human ACC1 worked out at 16 nM.

In the case of `COc1ccccc1[C@H](Cn1c(=O)n(C(C)(C)C(=O)O)c(=O)c2c(C)c(C#N)sc21)OC1CCOCC1` [Example 3, (R)-2-(6-cyano-1-(2-(2-methoxyphenyl)-2-((tetrahydro-2H-pyran-4-yl)oxy)ethyl)-5-methyl-2,4-dioxo-1,2-dihydrothiopheno[2,3-d]pyrimidin-3(4H)-yl)-2-methylpropionic acid], the 50% inhibitory concentration (IC50) on recombinant human ACC1 was found to be 11.6 nM. Still for that read-out and setting: for `COc1ccc(F)cc1C(Cn1c(=O)n(C(C)(C)C(=O)O)c(=O)c2c(C)c(C#N)sc21)OC1CCOCC1` (stereo not shown) [Example 4, 2-(6-Cyano-1-(2-(5-fluoro-2-methoxyphenyl)-2-((tetrahydro-2H-pyran-4-yl)oxy)ethyl)-5-methyl-2,4-dioxo-1,2-dihydrothiopheno[2,3-d]pyrimidin-3(4H)-yl)-2-methylpropionic acid] the value was 16.5 nM; for `CCOc1ccccc1C(Cn1c(=O)n(C(C)(C)C(=O)O)c(=O)c2c(C)c(C#N)sc21)OC1CCOCC1` (stereo not shown) [Example 6, 2-(6-Cyano-1-(2-(2-ethoxyphenyl)-2-((tetrahydro-2H-pyran-4-yl)oxy)ethyl)-5-methyl-2,4-dioxo-1,2-dihydrothiopheno[2,3-d]pyrimidin-3(4H)-yl)-2-methylpropionic acid], 21 nM; for `COc1ccc(F)cc1[C@H](Cn1c(=O)n(C(C)(C)C(=O)O)c(=O)c2c(C)c(C#N)sc21)OC1CCOCC1` [Example 11, (R)-2-(6-Cyano-1-(2-(5-fluoro-2-methoxyphenyl)-2-((tetrahydro-2H-pyran-4-yl)oxy)ethyl)-5-methyl-2,4-dioxo-1,2-dihydrothiopheno[2,3-d]pyrimidin-3(4H)-yl)-2-methylpropionic acid], 15 nM. In the case of `Cc1c(C#N)sc2c1c(=O)n(C(C)(C)C(=O)O)c(=O)n2CC(OC1CCOCC1)c1ccccc1OCC1CC1` (stereo not shown) [Example 13, 2-(6-Cyano-1-(2-(2-(cyclopropylmethoxy)phenyl)-2-((tetrahydro-2H-pyran-4-yl)oxy)ethyl)-5-methyl-2,4-dioxo-1,2-dihydrothiopheno[2,3-d]pyrimidin-3(4H)-yl)-2-methylpropionic acid], at recombinant human ACC1, the IC50 came out at 36 nM. On the same count and under the same terms, under `Cc1c(C#N)sc2c1c(=O)n(C(C)(C)C(=O)O)c(=O)n2CC(OC1CCOCC1)c1cc(F)ccc1OCCF` (stereo not shown) [Example 14, 2-(6-Cyano-1-(2-(5-fluoro-2-(2-fluoroethoxy)phenyl)-2-((tetrahydro-2H-pyran-4-yl)oxy)ethyl)-5-methyl-2,4-dioxo-1,2-dihydrothiopheno[2,3-d]pyrimidin-3(4H)-yl)-2-methylpropionic acid] stands 7.9 nM; under `CCOc1ccc(F)cc1C(Cn1c(=O)n(C(C)(C)C(=O)O)c(=O)c2c(C)c(C#N)sc21)OC1CCOCC1` (stereo not shown) [Example 15, 2-(6-Cyano-1-(2-(2-ethoxy-5-fluorophenyl)-2-((tetrahydro-2H-pyran-4-yl)oxy)ethyl)-5-methyl-2,4-dioxo-1,2-dihydrothiopheno[2,3-d]pyrimidin-3(4H)-yl)-2-methylpropionic acid], 4.4 nM; under `Cc1c(C#N)sc2c1c(=O)n(C(C)(C)C(=O)O)c(=O)n2CC(OC1CCOCC1)c1cc(F)ccc1OCC#N` (stereo not shown) [Example 17, 2-(6-Cyano-1-(2-(2-(cyanomethoxy)-5-fluorophenyl)-2-((tetrahydro-2H-pyran-4-yl)oxy)ethyl)-5-methyl-2,4-dioxo-1,2-dihydrothiopheno[2,3-d]pyrimidin-3(4H)-yl)-2-methylpropionic acid], 20.7 nM.

Usually half-life stands for the time in which the quantity being followed falls by half. The MRT is a mean duration of stay, worked out from the concentration-time curve. In the case of `CCOc1ccc(F)cc1[C@H](Cn1c(=O)n(C(C)(C)C(=O)O)c(=O)c2c(C)c(C#N)sc21)OC1CCOCC1` [Example 19, (R)-2-(6-cyano-1-(2-(2-ethoxy-5-fluorophenyl)-2-((tetrahydro-2H-pyran-4-yl)oxy)ethyl)-5-methyl-2,4-dioxo-1,2-dihydrothiopheno[2,3-d]pyrimidin-3(4H)-yl)-2-methylpropionic acid], the results for the IC50 at recombinant human ACC1 and on recombinant human ACC2 were 2.7 nM and 6 nM, respectively. Further, the concentration at 0.5 h in series [1] (oral, liver, 0.5 h after administration, read-out: drug concentration in the liver) stood at 46800 ± 14000 ng/mL. In series [1] (po, plasma, read-out: Blood concentration Cmax), the Cmax was found to be 920 ± 362 ng/mL. The AUC(0-inf) in series [1] (po, plasma, read-out: Curve area AUC0-∞) amounted to 1940 ± 1190 ng·h/mL. For the same compound, in series [1] (po, plasma, read-out: Half-life period T½ (converted)), the half-life was 3.39 ± 0.65 h. For the same compound, the MRT in series [1] (po, plasma, read-out: Residence time MRT) worked out at 2.82 ± 0.34 h. For the compound `Cc1c(C#N)sc2c1c(=O)n(C(C)(C)C(=O)O)c(=O)n2C[C@H](OC1CCOCC1)c1cc(F)ccc1OCCF` [Example 21, (R)-2-(6-cyano-1-(2-(5-fluoro-2-(2-fluoroethoxy)phenyl)-2-((tetrahydro-2H-pyran-4-yl)oxy)ethyl)-5-methyl-2,4-dioxo-1,2-dihydrothiopheno[2,3-d]pyrimidin-3(4H)-yl)-2-methylpropionic acid], the results for the half-maximal inhibitory concentration (IC50) on recombinant human ACC1 and at recombinant human ACC2 were 6.4 nM and 22 nM, respectively.

For the origin of these results see patent US11142531B2, “Cyano substituted heteroarylpyrimidinone derivative, preparation method and use thereof” (ZHEJIANG HISUN PHARMACEUTICAL CO., LTD., priority 2017, dated 2021).
